Where “and” joins values, the source holds several entries; their conditions need not be identical. Equal entries are not always repeated. Toxic doses and inconclusive results are not listed. How the source made its calls: active means survival T/C of 150% or more; inactive means T/C below 125% in these data. Peptide text beside a SMILES is read from it. * marks the point of attachment. OtBu = CC(C)(C)O*
Tested on: P388 leukemia ip, CD2F1 mice, survival T/C
Experiment: NCI In Vivo Anticancer Drug Screen. Data for tumor model P388 Leukemia (intraperitoneal) in CD2F1 (CDF1) mice
Settings: endpoint: median survival time, higher = longer survival
Method in brief: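 Mice carrying the transplanted tumor received test compound or vehicle. Survival was recorded in each group, and the value is the treated-group measurement divided by that of the vehicle-treated control group.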

[1] = dose: 50.0 mg/kg/injection, schedule: Q01DX005 (ip), vehicle: saline with Tween-80
[2] = dose: 100.0 mg/kg/injection, schedule: Q01DX005 (ip), vehicle: saline with Tween-80
[3] = dose: 200.0 mg/kg/injection, schedule: Q01DX005 (ip), vehicle: saline with Tween-80
[4] = dose: 100.0 mg/kg/injection, schedule: Q01DX001 (ip), vehicle: Klucel (hydroxypropylcellulose) (HPC)
[5] = dose: 200.0 mg/kg/injection, schedule: Q01DX001 (ip), vehicle: Klucel (hydroxypropylcellulose) (HPC)
[6] = dose: 100.0 mg/kg/injection, schedule: Q04DX002 (ip), vehicle: Klucel (hydroxypropylcellulose) (HPC)
[7] = dose: 50.0 mg/kg/injection, schedule: Q01DX009 (ip), vehicle: saline with Tween-80
[8] = dose: 100.0 mg/kg/injection, schedule: Q01DX009 (ip), vehicle: saline with Tween-80
[9] = dose: 200.0 mg/kg/injection, schedule: Q01DX009 (ip), vehicle: saline with Tween-80
[10] = dose: 50.0 mg/kg/injection, schedule: Q01DX009 (ip), vehicle: saline
[11] = dose: 100.0 mg/kg/injection, schedule: Q01DX009 (ip), vehicle: saline
[12] = dose: 200.0 mg/kg/injection, schedule: Q01DX009 (ip), vehicle: saline
[13] = dose: 50.0 mg/kg/injection, schedule: Q01DX005 (ip), vehicle: Klucel (hydroxypropylcellulose) (HPC)
[14] = dose: 100.0 mg/kg/injection, schedule: Q01DX005 (ip), vehicle: Klucel (hydroxypropylcellulose) (HPC)
[15] = dose: 200.0 mg/kg/injection, schedule: Q01DX005 (ip), vehicle: Klucel (hydroxypropylcellulose) (HPC)
[16] = dose: 25.0 mg/kg/injection, schedule: Q01DX009 (ip), vehicle: saline
[17] = dose: 400.0 mg/kg/injection, schedule: Q01DX001 (ip), vehicle: Klucel (hydroxypropylcellulose) (HPC)

Measured: T/C

Cc1ccc2c(c1)C(=O)c1ccccc1/C2=C1\c2ccccc2C(=O)c2cc(C)ccc21
inactive: dose: 50.0 mg/kg/injection, schedule: Q01DX005 (ip), vehicle: Klucel + Tween-80 105 % of control | dose: 100.0 mg/kg/injection, schedule: Q01DX005 (ip), vehicle: Klucel + Tween-80 89 % of control | dose: 200.0 mg/kg/injection, schedule: Q01DX005 (ip), vehicle: Klucel + Tween-80 89 % of control

S=c1ncnc2cc3[nH][nH]cc3cc12
inactive: [1] 90 % of control | [2] 86 % of control | [3] 92 % of control

CCN(CC)C(=O)Cn1cc([N+](=O)[O-])sc1=NC(=O)c1ccco1
inactive: [4] 100 % of control | [5] 101 % of control

CC1(C)SC=C2C1=CSC2(C)C
inactive: [1] 101 % of control | [2] 96 % of control | [3] 95 % of control

COc1nc(Nc2ccccc2OC)nc(OC)n1
inactive: dose: 50.0 mg/kg/injection, schedule: Q01DX009 (ip), vehicle: Klucel (hydroxypropylcellulose) (HPC) 101 % of control | dose: 100.0 mg/kg/injection, schedule: Q01DX009 (ip), vehicle: Klucel (hydroxypropylcellulose) (HPC) 99 % of control | dose: 200.0 mg/kg/injection, schedule: Q01DX009 (ip), vehicle: Klucel (hydroxypropylcellulose) (HPC) 100 % of control

CC(CN(C)C)C(=O)/C=C/c1ccc(Cl)cc1 (stereo not drawn)
inactive: dose: 60.0 mg/kg/injection, schedule: Q01DX005 (ip), vehicle: saline 118 % of control | dose: 120.0 mg/kg/injection, schedule: Q01DX005 (ip), vehicle: saline 122 % of control

CCOC(=O)c1ccc(N=NN2CN3CN(C2)CN(N=Nc2ccc(C(=O)OCC)cc2)C3)cc1
inactive: dose: 25.0 mg/kg/injection, schedule: Q04DX002 (ip), vehicle: Klucel (hydroxypropylcellulose) (HPC) 99 % of control | dose: 50.0 mg/kg/injection, schedule: Q04DX002 (ip), vehicle: Klucel (hydroxypropylcellulose) (HPC) 104 % of control | [6] 100 % of control and 87 % of control

O=C1OC2(CCCC2)OC(=O)C1=Cc1ccc([N+](=O)[O-])s1
inactive: [7] 115 % of control | [8] 114 % of control

CCCCC1CC=CC(NC#N)=N1 (stereo not drawn)
inactive: [7] 100 % of control | [8] 104 % of control | [9] 115 % of control

COc1ccc(C(=O)CC2=NC3NN(c4ccccc4)C(=O)C3=C2CC(=O)c2ccc(OC)cc2)cc1 (stereo not drawn)
inactive: dose: 60.0 mg/kg/injection, schedule: Q01DX005 (ip), vehicle: suspension in saline 101 % of control | dose: 120.0 mg/kg/injection, schedule: Q01DX005 (ip), vehicle: suspension in saline 108 % of control | dose: 240.0 mg/kg/injection, schedule: Q01DX005 (ip), vehicle: suspension in saline 112 % of control

Cc1nc2ccccc2c(=O)n1C(C)C
inactive: [10] 99 % of control | [11] 100 % of control | [12] 104 % of control

O=C(CC(c1ccccc1)C(C(=O)O)c1ccccc1)c1ccccc1 (stereo not drawn)
inactive: dose: 25.0 mg/kg/injection, schedule: Q01DX001 (ip), vehicle: saline with Tween-80 92 % of control | dose: 50.0 mg/kg/injection, schedule: Q01DX001 (ip), vehicle: saline with Tween-80 92 % of control | dose: 100.0 mg/kg/injection, schedule: Q01DX001 (ip), vehicle: saline with Tween-80 87 % of control | dose: 200.0 mg/kg/injection, schedule: Q01DX001 (ip), vehicle: saline with Tween-80 86 % of control

CCOC(=O)Cc1ccc(N(CCO)CCO)cc1
inactive: dose: 60.0 mg/kg/injection, schedule: Q01DX005 (ip), vehicle: saline with Tween-80 100 % of control | dose: 120.0 mg/kg/injection, schedule: Q01DX005 (ip), vehicle: saline with Tween-80 103 % of control | dose: 240.0 mg/kg/injection, schedule: Q01DX005 (ip), vehicle: saline with Tween-80 101 % of control

CC(C)CC(NC(=O)C1CCCN1)C(=O)NC(CC(C)C)C(=O)OC(C)(C)C (stereo not drawn) (H-Pro-Leu-Leu-OtBu; configuration not given here)
inactive: [13] 102 % of control | [14] 99 % of control | [15] 96 % of control

OCC1OC(O)C(N=Cc2ccc3c(c2)OCO3)C(O)C1O (stereo not drawn)
inactive: [1] 104 % of control | [2] 100 % of control | [3] 102 % of control

Cc1cc(-c2ccc(N3C(=O)CC4(CCCCC4)C3=O)c(C)c2)ccc1N1C(=O)CC2(CCCCC2)C1=O
inactive: dose: 100.0 mg/kg/injection, schedule: Q04DX003 (ip), vehicle: Klucel (hydroxypropylcellulose) (HPC) 90 % of control | dose: 200.0 mg/kg/injection, schedule: Q04DX003 (ip), vehicle: Klucel (hydroxypropylcellulose) (HPC) 90 % of control

CC12CCC(O)CC1CCC1C2CCC2(C)C(c3ccc(=O)oc3)CC3OC312 (stereo not drawn)
inactive: dose: 0.31 mg/kg/injection, schedule: Q01DX009 (ip), vehicle: saline with Tween-80 108 % of control | dose: 0.62 mg/kg/injection, schedule: Q01DX009 (ip), vehicle: saline with Tween-80 100 % of control | dose: 1.25 mg/kg/injection, schedule: Q01DX009 (ip), vehicle: saline with Tween-80 104 % of control | dose: 2.5 mg/kg/injection, schedule: Q01DX009 (ip), vehicle: saline with Tween-80 115 % of control | dose: 5.0 mg/kg/injection, schedule: Q01DX009 (ip), vehicle: saline with Tween-80 100 % of control and 87 % of control | dose: 10.0 mg/kg/injection, schedule: Q01DX009 (ip), vehicle: saline with Tween-80 87 % of control | dose: 20.0 mg/kg/injection, schedule: Q01DX009 (ip), vehicle: saline with Tween-80 88 % of control

O=C1CCSC(=S)N1c1ccc(Cl)c([N+](=O)[O-])c1
inactive: dose: 25.0 mg/kg/injection, schedule: Q01DX009 (ip), vehicle: saline with Tween-80 87 % of control | [16] 97 % of control | [7] 88 % of control | [10] 104 % of control | dose: 50.0 mg/kg/injection, schedule: Q01DX009 (ip), vehicle: suspension in saline 103 % of control | [8] 98 % of control | [11] 97 % of control | dose: 100.0 mg/kg/injection, schedule: Q01DX009 (ip), vehicle: suspension in saline 109 % of control | [9] 115 % of control | [12] 97 % of control

C=C(C)C(=O)O[C@@H]1C/C(C)=C\[C@H](OC(C)=O)C[C@](C)(O)/C=C2/OC(=O)C(COC(C)=O)=C21
inactive: dose: 5.5 mg/kg/injection, schedule: Q01DX005 (ip), vehicle: Klucel (hydroxypropylcellulose) (HPC) 105 % of control and 110 % of control | dose: 11.0 mg/kg/injection, schedule: Q01DX005 (ip), vehicle: Klucel (hydroxypropylcellulose) (HPC) 103 % of control and 109 % of control | dose: 22.0 mg/kg/injection, schedule: Q01DX005 (ip), vehicle: Klucel (hydroxypropylcellulose) (HPC) 122 % of control

CC1C=CC(C)C2C(=O)C3C(C)C=CC(C)C3C(=O)C12 (stereo not drawn)
inactive: [13] 93 % of control | [14] 97 % of control | [15] 87 % of control

CC(=O)OC1CC2(OC(C)=O)CC(OC2=O)C1OC(C)=O (stereo not drawn)
inactive: [4] 100 % of control | [6] 100 % of control | [5] 100 % of control | dose: 200.0 mg/kg/injection, schedule: Q04DX002 (ip), vehicle: Klucel (hydroxypropylcellulose) (HPC) 100 % of control | [17] 99 % of control | dose: 400.0 mg/kg/injection, schedule: Q04DX002 (ip), vehicle: Klucel (hydroxypropylcellulose) (HPC) 98 % of control

OC1CCOC1 (stereo not drawn)
inactive: dose: 6.25 mg/kg/injection, schedule: Q01DX009 (ip), vehicle: saline 95 % of control | dose: 12.5 mg/kg/injection, schedule: Q01DX009 (ip), vehicle: saline 97 % of control | [16] 100 % of control | [10] 101 % of control | [11] 101 % of control | [12] 98 % of control | dose: 400.0 mg/kg/injection, schedule: Q01DX009 (ip), vehicle: saline 94 % of control | dose: 800.0 mg/kg/injection, schedule: Q01DX009 (ip), vehicle: saline 96 % of control

O=C(O)Cc1cn2cc(Cl)cc(Cl)c2n1
inactive: [4] 114 % of control | [5] 101 % of control | [17] 98 % of control

COC1=C(C)[C@@H]2CC(=O)O[C@@H]3C[C@H]4CCCC[C@]4(C)[C@@H](C1=O)[C@@]32C
inactive: [13] 95 % of control | [14] 92 % of control | [15] 93 % of control

Reference: PubChem BioAssay AID330 (DTP/NCI, 2004)
